# Experimental data published in patent publication US20200393377A1, “Microscopy for Rapid Antibiotic Susceptibility Test Using Membrane Fluorescence Staining and Spectral Intensity Ratio” (POCARED Diagnostics LTD., priority 2019, published 2020).
# What was measured:
# E. coli [1] = assay: MIC by SIR from flow cytometer measurement; format: cell-based; conditions: SIR vs antibiotic concentration
# Experimental: The MIC is calculated by plotting the spectral intensity ratio (SIR) as a function of the antimicrobial concentration and approximating it to a step function in the form of
# Where a, b, and c are parameters and erf is the error function. The parameters are used to approximate the measured SIR to a step function; a is a scaling parameter, b determines the step slope, and c is the MIC value, or a function of it. The SIR values are used to determine the erf parameters by a best fit approximation.
# We measured E. coli exposed to gentamicin at 4 concentration. The MIC was calculated using the spectral intensity ratio (SIR) calculation and step function estimation using MATLAB software.
# FIG. 3 provides plots showing the SIR as a function of the antibiotic concentration for the InCell measurement (top) and flow cytometer measurement (bottom). As can been seen from the graphs, their shapes are similar, although the InCell measurement has less data points, and the MIC is 0.5 μg/ml in both cases. Live bacteria population (0 μg/ml) have lower SIR then the dead ones (>0.5 μg/ml). At the MIC (0.5 ug/ml) there is a large increase in the SIR. […] The SIR then decreases at very high (>4 ug/ml) antibiotic concentrations.
# E. coli [2] = assay: Rapid AST/MIC by membrane fluorescence staining, SIR from IN Cell confocal imaging; format: cell-based; conditions: InCell measurement; SIR (610 nm/530 nm) vs antibiotic concentration, step function fit; 2-4 hours antibiotic exposure at 37° C.; Synaptogreen/FM 1-43 dye
# Experimental: In general, the method includes blood culture centrifugation, bacterial antimicrobial exposure for 2 to 4 hours, bacteria staining with a single fluorescence dye followed by laser confocal microscopy, and mathematical analysis.
# Sample Preparation—Macro Dilution Method • a) Antimicrobial (Gentamicin) stock solutions were prepared according to CLSI recommendations, and were diluted in CAMHB, to a concentration which was 2 fold higher from the highest concentration recommended for each antimicrobial combination (“Class II Special Controls Guidance Document: Antimicrobial Susceptibility Test (AST) Systems”, Aug. […] The images were taken through a green filter (530 nm) and red filter (615 nm) one after the other for each image. • i) images were analyzed using GE In Cell Investigator image analysis software. For each image the following operation were performed; segmentation for identifying the bacteria, for each bacteria the intensity in the green and […] were recorded, and a scatter plot of the bacteria population was plotted (x axis—intensity in the green, y axis—intensity in the red).
# To quantify the influence of a certain antimicrobial exposure we define the spectral intensity ratio (SIR) as follows: […]
# The MIC is calculated by plotting the spectral intensity ratio (SIR) as a function of the antimicrobial concentration and approximating it to a step function in the form of […]
substance,measurement,setting,value
gentamicin,MIC,E. coli [1],0.5 µg/mL
same,MIC,E. coli [2],0.5 µg/mL
